# Assay results reported in patent publication US20200031866A1, “PEPTIDE INHIBITORS OF SODIUM CHANNELS” (SPYRYX BIOSCIENCES, INC., priority 2016, published 2020).
# Square brackets hold non-standard residues; d marks the D form. Peptide text beside a SMILES is read from it.
# System: tracheal mucus velocity (TMV) in sheep
# Experiment: CFTRinh-172-induced slowing of tracheal mucus velocity (TMV) in sheep
# Type: in vivo
# Settings: for average TMV response between 5-12h: mean±se, 3 sheep/group, saline 50±0.5%
# Description: All procedures used were approved by the Mount Sinai Medical Center Animal Research Committee. The sheep were conscious and intubated for these studies. All instrumentation was performed under local anesthesia. After topical anesthesia of the nasal passages with 2% lidocaine solution, the sheep were nasally intubated, with an endotracheal tube […] in diameter (Mallinckrodt Med Inc., St. Louis, Mo.) shortened by 6 cm. The cuff of the tube was placed just below the vocal cords (verified by fluoroscopy) to allow for maximal exposure of the tracheal surface area. The inspired air was warmed and humidified using a Bennett Humidifier (Puritan-Bennett, Lenexa, Kans.). To minimize possible impairment of TMV caused by the inflated cuff, the endotracheal tube cuff remained deflated throughout the study except for the period of drug delivery.
# TMV was measured in vivo by a roentgenographic technique. Between 8 and 10 radiopaque Teflon/bismuth trioxide disks, 1-mm diameter, 0.8-mm thick and 1.5-2 mg in weight, were insufflated onto the trachea. A modified suction catheter connected to a source of continuous compressed air at a flow of 3-4 L/min was used to introduce the particles via the endotracheal tube. The catheter remained within the endotracheal tube only during particle delivery, so that no contact with the tracheal surface is made. The cephalad-axial velocities of the individual disks were recorded on videotape from a portable image intensifier unit. Individual disk velocities were calculated by measuring the distance traveled by each disk during a 1-min observation period. For each run, the mean value of all individual disk velocities was calculated. A collar containing radiopaque reference markers of known length was worn by the sheep, and used as a standard to correct for magnification effects inherent in the fluoroscopy unit.
# Aerosols were generated using an Airlife medication nebulizer. To control aerosol delivery a dosimetry system activated by a piston respirator (Harvard Apparatus Respiratory Pump, Holliston, Mass.) was used. The nebulizer was connected to a T-piece with one end attached to the respiratory pump and the other to the animal's tracheal tube. Nebulized aerosols were delivered directly into the trachea only during inspiration at a frequency of 20 breaths/min and at a tidal volume of 500 mL.
# Ten (10) mg of CFTRinh-172 was dissolved in 0.3 mL of DMSO. The solution was vortexed and then 2.7 mL of ethanol was added bringing the final nebulized solution of CFTRinh to 10 mg/3 mL. […]
# After a 10 minute period on the humidifier, a baseline TMV was obtained Immediately following the baseline, the sheep were challenged with an aerosol of 10 mg of CFTRinh. TMV was measured hourly for 4h. […] TMV was then measured from 5-12h following treatment. […]
smiles,measurement,setting,value
"CC[C@H](C)[C@H](NC(=O)[C@@H]1CCCN1C(=O)[C@H](CC(C)C)NC(=O)[C@@H](C)NC(=O)[C@@H](C)N)C(=O)N1CCC[C@H]1C(=O)N[C@@H](CC(C)C)C(=O)N[C@@H](CC(=O)O)C(=O)N[C@@H](CCC(N)=O)C(=O)N[C@H](C(=O)N[C@H](C)C(=O)N[C@H](C)C(N)=O)[C@@H](C)O [SEQ ID NO:128, aaLPIPLDQTaa] (H-[dA][dA]LPIPLDQT[dA][dA]-NH2)",average TMV response between 5-12h,1 mg/kg nebulized 4 h after 10 mg CFTRinh,73.7±0.7%
same,average TMV response between 5-12h,2 mg/kg nebulized 4 h after 10 mg CFTRinh,88.4±0.6%
same,average TMV response between 5-12h,4 mg/kg nebulized 4 h after 10 mg CFTRinh,103.0±0.6%
same,reversal of CFTRinh-induced slowing of TMV,"reversal dose dependent, FIGS. 8A-8C",can reverse CFTRinh-induced slowing of TMV
